Read-outs that look alike come from different tables or passages of the source.
Experiments:
[1] = In vitro metabolite screening, monkey liver microsomes; assay type: in vitro ADME; settings: NHP, N=2
Protocol: (§1) [^14C]EC-18 or the positive control (7-ethoxycoumarin; 7-EC) reacted with microsomes prepared from hepatocytes of rats, dogs, monkeys, and humans, with or without cofactors, for 60 and 120 min. Then, the residual EC-18 concentration over time was measured by LC-RID ([^14C]EC-18) or LC-MS/MS (7-EC) (FIG. 63 and FIG. 64).
(§2) The LC-RID chromatographic profiles of radioactive metabolites produced in the 2-hr incubation reaction mixtures of the same test systems A, B, and C used to assess the metabolic and non-metabolic elimination rates of EC-18 were compared to the LC-UV chromatographic profiles of the synthetic reference material. […] The relative radioactivity of EC-18 accounted for 42-67% of total radioactivity. The peaks designated as M2, M3, and M5 were also determined in all species, and their relative radioactivity accounted for 12-34% of total radioactivity. The peaks of M4 and M6 were determined in monkeys and humans. M1 was abundantly detected in all species, but it was assumed to be a peak of early elution. The LC-UV chromatograms of reaction mixtures in each test system (FIGS. 65A-65C) and the relative radioactivity of the screened metabolites are shown in Table 25.

[2] = In vitro metabolite screening, dog liver microsomes; assay type: in vitro ADME; settings: N=2
Protocol: as §1, §2

[3] = Safety assessment in clinical trials; assay type: in vivo, human
Protocol: AEs that were observed involved mild symptoms unrelated to EC-18 administration. […] In the clinical studies with pancreatic cancer patients, there were no SAEs associated with EC-18 administered twice daily (BID) for a total of 1000 mg/day.

CYP2C9 = target: T1, CYP2C9 (Homo sapiens, UniProt P11712); assay: CYP enzyme inhibition in human liver microsomes, CYP2C9; assay type: in vitro ADME
T1 construct: incubated with human liver microsomes; from tissue; host or cells: human liver microsomes

[4] = Plasma radioactivity in rats after single oral or IV [14C]EC-18; assay type: in vivo, rat; settings: oral, fed condition
Protocol: Male SD rats in the fed state were administered a single oral dose of 25, 50, or 100 mg/kg (vehicle: olive oil) or a single IV injection of 10 mg/kg of [^14C]EC-18 (EC-18 with radioactive isotope ^14C attached). Subsequently, the PK parameters were assessed. The concentration of radioactivity in rat plasma was measured by liquid scintillation counting (LSC) method after adding a scintillator (Clear-Sol I, Nacalai Tesque, Inc).

Guinea pig = assay: Antigenicity test; assay type: in vivo; settings: Oral; 2 weeks; 500, 2000 mg/kg; 2000 mg/kg + FCA
From the text: Various toxicology studies have been performed. All studies were GLP-compliant unless otherwise noted.

[5] = Plasma and lymphatic concentrations of EC-18 in beagle dogs after single administration; assay type: in vivo, dog; settings: for Tmax / AUC(0-t) / half-life / Cmax: male, beagle, dog; for Tmax: po
Protocol: A single dose of EC-18 (1000, 2000, 4000 mg/kg by mouth or 100 mg/kg IV) was administered to male beagle dogs in fed condition and the concentration of EC-18 in plasma and lymph was measured using UHPLC-MS/MS.

BCRP = target: T2, BCRP (Homo sapiens, UniProt Q9UNQ0); assay: Drug transporter inhibition, BCRP; assay type: in vitro ADME; settings: 100 nM [3H] estrone-3-sulfate; transfected LLC-PK1 cells
T2 construct: expressed in transfected cells; host or cells: LLC-PK1
Protocol: This study examined the potential of EC-18 to interact with the transporter proteins that have been known to be involved in the absorption of commercially available drugs. EC-18 was pre-incubated with HEK-293 cells and LLC-PK1 cells that were transfected with the genes of most drug transporters as follows: OATP1B1, OATP1B3, OAT1, OAT3 and OCT2, and BCRP and P-gp, respectively.

[6] = tested on: RIPK1/3-MLKL-mediated necroptosis pathway; assay: Necroptosis signaling and DAMP release in HaCaT cells treated with CM or rhHMGB1; assay type: cell-based, human
Protocol: An additional experiment was tested for assessing whether EC-18 treatment leads to early termination of the RIPK1/3-MLKL-mediated downstream necroptosis pathway. This was performed by using DAMP-containing conditioned media (CM) harvested from HaCaT cells, irradiated for 48 hrs, and analyzed after 2 or 72 hrs of EC-18 treatment. […] To further confirm that DAMPs in CM contribute to the activation of a necroptosis signaling pathway in a paracrine manner, recombinant human HMGB1 (rhHMGB1) was treated directly to the normal HaCaT cells. The rhHMGB1 elevated the phosphorylation of RIPK1/3 and MLKL after 2 hrs and subsequently released HMGB1 and HSP90 (FIGS. 35C-35D). To evaluate whether EC-18 mitigates the activation of RIPK1/3 and MLKL, 10 or 100 μg/mL of EC-18 was treated before the addition of CM or rhHMGB1. As a result, EC-18 lowered the phosphorylation of RIPK/3 and MLKL in both CM- and rhHMGB1-treated cells after 2 hrs. Release of HMGB1 and Hsp90 was also subsided by EC-18 after 72 hrs of post addition of CM or rhHMGB1 to the cells (FIGS. 35A-35D). TLR4-induced necroptosis signaling pathway caused by DAMP release produces cytokines, such as CXCL8, a chemotactic cytokine for neutrophils. As CXCL8 increases upon tissue damage, it was measured in cells treated with CM or rhHMGB1 as a measure of inflammation. […]

[7] = A (NADPH added), [14C]EC-18 2 hrs
[8] = B (NADPH, PAPS, UDPGA added), 2 hrs

T2 sequence (Q9UNQ0 whole entry, species assumed): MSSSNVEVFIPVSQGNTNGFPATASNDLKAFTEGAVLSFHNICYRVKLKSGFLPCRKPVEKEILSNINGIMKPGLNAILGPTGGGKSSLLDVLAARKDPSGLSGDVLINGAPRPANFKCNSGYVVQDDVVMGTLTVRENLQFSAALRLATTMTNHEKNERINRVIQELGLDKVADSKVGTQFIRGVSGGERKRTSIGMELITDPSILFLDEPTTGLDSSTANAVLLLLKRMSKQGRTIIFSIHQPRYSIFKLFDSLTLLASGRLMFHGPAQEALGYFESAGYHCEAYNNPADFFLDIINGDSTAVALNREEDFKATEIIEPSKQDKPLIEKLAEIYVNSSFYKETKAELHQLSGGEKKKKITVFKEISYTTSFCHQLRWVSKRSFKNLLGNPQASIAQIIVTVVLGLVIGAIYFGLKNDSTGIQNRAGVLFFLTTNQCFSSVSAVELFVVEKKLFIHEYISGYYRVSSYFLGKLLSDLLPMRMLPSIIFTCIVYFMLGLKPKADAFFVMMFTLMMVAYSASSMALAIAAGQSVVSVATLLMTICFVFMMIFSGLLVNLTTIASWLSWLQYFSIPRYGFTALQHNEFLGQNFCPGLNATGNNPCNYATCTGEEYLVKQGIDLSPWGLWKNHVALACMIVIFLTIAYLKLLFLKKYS
T1 sequence (P11712 whole entry): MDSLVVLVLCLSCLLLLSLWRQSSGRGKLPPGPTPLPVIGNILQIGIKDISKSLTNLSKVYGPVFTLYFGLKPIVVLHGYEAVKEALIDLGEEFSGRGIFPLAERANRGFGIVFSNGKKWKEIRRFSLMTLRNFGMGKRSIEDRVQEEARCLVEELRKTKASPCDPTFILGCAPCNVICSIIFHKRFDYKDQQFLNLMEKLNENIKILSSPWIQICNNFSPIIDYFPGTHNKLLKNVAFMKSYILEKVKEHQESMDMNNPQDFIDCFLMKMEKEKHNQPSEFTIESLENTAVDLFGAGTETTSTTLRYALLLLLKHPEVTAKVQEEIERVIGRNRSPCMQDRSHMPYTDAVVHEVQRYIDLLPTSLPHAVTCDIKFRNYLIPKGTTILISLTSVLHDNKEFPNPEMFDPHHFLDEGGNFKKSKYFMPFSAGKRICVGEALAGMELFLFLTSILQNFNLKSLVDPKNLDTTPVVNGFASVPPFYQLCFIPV

Compound: CCCCC/C=C\C/C=C\CCCCCCCC(=O)OC(COC(C)=O)COC(=O)CCCCCCCCCCCCCCC (stereo not drawn) [EC-18, 1-palmitoyl-2-linoleoyl-3-acetylglycerol]
- Mean Peak Area in LC-RID [1, 7]: 46.8%
- Mean Peak Area in LC-RID [1, 8]: 46.0%
- Mean Peak Area in LC-RID ([1]; C (no cofactor added), 2 hrs): 41.8%
- Mean Peak Area in LC-RID [2, 7]: 52.6%
- Mean Peak Area in LC-RID [2, 8]: 54.3%
- Mean Peak Area in LC-RID ([2]; C (no cofactor added), 2 hrs): 56.6%
- adverse events ([3]; five clinical trials): no adverse events (AEs) that could be considered serious or severe
- SAEs associated with EC-18 ([3]; pancreatic cancer patients, BID, total 1000 mg/day): no SAEs
- accumulation ([3]; single- and multiple-dose 500 to 4000 mg): no accumulation with repeated-dosing was observed
- IC50 (CYP2C9): 7.99 mM
- absolute bioavailability (BA) [4]: approximately 46%
- anaphylaxis reaction / antigenicity (Guinea pig): No anaphylaxis reaction
- F ([5]; 1000 mg/kg po, Plasma): 7.8%
- F ([5]; 2000 mg/kg po, Plasma): 6.3%
- F ([5]; 4000 mg/kg po, Plasma): 23.6%
- Tmax ([5]; lymph, 1000 mg/kg, 1000 mg/kg po, Lymph, read-out: Tmax): 3.3 ± 0.9 h
- Tmax ([5]; lymph, 1000 mg/kg, 1000 mg/kg po, lymph, read-out: median Tmax): 4 h
- Tmax ([5]; lymph, 2000 mg/kg, 2000 mg/kg po, Lymph, read-out: Tmax): 3.3 ± 0.9 h
- Tmax ([5]; lymph, 2000 mg/kg, 2000 mg/kg po, lymph, read-out: median Tmax): 4 h
- Tmax ([5]; lymph, 4000 mg/kg, 4000 mg/kg po, Lymph, read-out: Tmax): 3.3 ± 1.9 h
- Tmax ([5]; lymph, 4000 mg/kg, 4000 mg/kg po, lymph, read-out: median Tmax): 2 h
- Tmax ([5]; plasma, 1000 mg/kg, 1000 mg/kg po, Plasma, read-out: Tmax): 1.3 h
- Tmax ([5]; plasma, 2000 mg/kg, 2000 mg/kg po, Plasma, read-out: Tmax): 1.3 h
- Tmax ([5]; plasma, 4000 mg/kg, 4000 mg/kg po, Plasma, read-out: Tmax): 6.7 h
- AUC(0-t) ([5]; 100 mg/kg IV, Plasma): 7540 ± 1860 ng·h/mL
- half-life ([5]; 100 mg/kg IV, Plasma): 13.9 ± 2.3 h
- AUC(0-t) ([5]; 1000 mg/kg po, Lymph): 118000 ± 16700 ng·h/mL
- Cmax ([5]; 1000 mg/kg po, Lymph): 35100 ± 5160 ng/mL
- AUC(0-t) ([5]; 1000 mg/kg po, Plasma): 5800 ± 2810 ng·h/mL
- Cmax ([5]; 1000 mg/kg po, Plasma): 1750 ± 710 ng/mL
- AUC(0-t) ([5]; 2000 mg/kg po, Lymph): 389000 ± 125000 ng·h/mL
- Cmax ([5]; 2000 mg/kg po, Lymph): 40100 ± 8620 ng/mL
- AUC(0-t) ([5]; 2000 mg/kg po, Plasma): 9490 ± 3850 ng·h/mL
- Cmax ([5]; 2000 mg/kg po, Plasma): 2110 ± 750 ng/mL
- AUC(0-t) ([5]; 4000 mg/kg po, Lymph): 431000 ± 81300 ng·h/mL
- Cmax ([5]; 4000 mg/kg po, Lymph): 46600 ± 1730 ng/mL
- half-life ([5]; 4000 mg/kg po, Lymph): 3.3 ± 0.2 h
- AUC(0-t) ([5]; 4000 mg/kg po, Plasma): 71100 ± 31700 ng·h/mL
- Cmax ([5]; 4000 mg/kg po, Plasma): 6760 ± 3330 ng/mL
- IC50 (BCRP): > 0.032 mM
- phosphorylation of RIPK1/3 and MLKL ([6]; 10 or 100 μg/mL before CM or rhHMGB1, after 2 hrs): lowered
- release of HMGB1 and Hsp90 ([6]; 10 or 100 μg/mL, 72 hrs after CM or rhHMGB1): subsided

Reference: patent publication US12076307B2, “Compositions for prevention or treatment of acute radiation syndrome and other radiation exposure” (priority 2017, dated 2024)
